Data as given in patent publication US5288720A, “Angiotensin II receptor blocking 2,3,6 substituted quinazolinones” (American Cyanamid Company, priority 1993, dated 1994).

What was measured:
[1] = test system: ANGIOTENSIN II VASOPRESSOR RESPONSE; test: AII Challenge: blockade of angiotensin II vasopressor response in conscious SHR; assay type: in vivo, rat (Conscious Male Okamoto-Aoki SHR); conditions: SHR n=2, 3 mg/kg i.v.
Text: By administering a compound of this invention to a rat, and then challenging with angiotensin II, a blockage of the vasopressor response is realized.
Conscious Male Okamoto-Aoki SHR, 16-20 weeks old, weighing approximately 330 g are purchased from Charles River Labs (Wilmington, Mass.). Conscious rats are restrained in a supine position with elastic tape. The area at the base of the tail is locally anesthetized by subcutaneous infiltration with 2% procaine. The ventral caudal artery and vein are isolated, and a cannula made of polyethylene (PE) 10-20 tubing (fused together by heat) is passed into the lower abdominal aorta and vena cava, respectively. The cannula is secured, heparinized (1,000 I.U./ml), sealed and the wound is closed. The animals are placed in plastic restraining cages in an upright position. The cannula is attached to a Statham P23Db pressure transducer, and pulsatile blood pressure is recorded to 10-15 minutes with a Gould Brush recorder. (Chan et al., (Drug Development Res., 18:75-94, 1989).
Angiotensin II (human sequence, Sigma Chem. Co., St. Louis, MO) of 0.05 and 0.1 ug/kg i.v. is injected into all rats (predosing response). Then a test compound, vehicle or a known angiotensin II antagonist is administered i.v., i.p. or orally to each set of rats. The two doses of angiotensin II are given to each rat again at 30, 60, 90, 120, 180, 240 and 300 minutes post dosing the compound or vehicle. The vasopressor response of angiotensin II is measured for the increase in systolic blood pressure in mmHg. The percentage of antagonism or blockade of the vasopressor response of angiotensin II by a compound is calculated using the vasopressor response (increase in systolic blood pressure) of angiotensin II of each rat predosing the compound as 100%. A compound is considered active if at 30 mg/kg i.v. it antagonized at least 50% of the response.

Angiotensin II Receptor = biological target: T1, Angiotensin II Receptor (Bos taurus, UniProt P25104); test: Receptor Binding Assay: Binding of [^125 I](Sar^1,Ile^8)AngII to beef adrenal cortex membranes; conditions: 60 min, room temperature
T1 construct: The brownish tissue forming the adrenal cortex is scraped off and finely minced with scissors before homogenization; from tissue; host or cells: beef adrenal cortex, microsomal membranes (100,000×g pellet); fresh glands from a local slaughter house (Maxwell-Cohen)
T1 sequence (P25104 1-359): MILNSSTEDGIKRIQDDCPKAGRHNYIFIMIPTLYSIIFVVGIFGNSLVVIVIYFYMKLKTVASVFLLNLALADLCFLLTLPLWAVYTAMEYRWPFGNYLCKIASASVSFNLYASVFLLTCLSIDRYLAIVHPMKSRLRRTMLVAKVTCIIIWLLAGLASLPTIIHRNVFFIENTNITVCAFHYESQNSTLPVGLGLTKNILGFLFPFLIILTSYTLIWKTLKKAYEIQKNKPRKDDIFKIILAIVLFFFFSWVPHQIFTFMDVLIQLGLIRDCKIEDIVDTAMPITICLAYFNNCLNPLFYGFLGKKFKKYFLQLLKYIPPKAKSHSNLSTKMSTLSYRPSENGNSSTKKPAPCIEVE
Text: Beef adrenals are obtained from a local slaughter house (Maxwell-Cohen). [^125 […]. 2200 Ci/mmole, is purchased from Dupont (NEN®, Boston, Mass.). All unlabeled AngII analogs, Dimethylsulfoxide (DMSO), nucleotides, bovine serum albumin (BSA) are purchased from Sigma Chemical Co., St. Louis, Mo. U.S.A. […] Approximately sixteen (16) to twenty (20) beef adrenal glands are processed as follows: fresh adrenal glands received on crushed ice are cleaned of fatty tissues and the tough membranes encapsulating the glands are removed and discarded. The brownish tissue forming the adrenal cortex is scraped off and finely minced with scissors before homogenization. Care is taken to avoid contamination with medullary tissue during dissection. The scraped cortices are suspended in twenty volumes of an ice-cold buffer medium consisting of 10 mM Tris.HCl (pH 7.4 at 22° C.) and containing 1.0 mM EDTA and 0.2M sucrose. Unless otherwise indicated, all subsequent operations are done at 4° C. […] The homogenate is centrifuged first at low speed (3,000×g) for 10 minutes. […] This P2 pellet is discarded and the liquid phase is carefully decanted off in clean centrifuge tubes and recentrifuged at high speed (100,000×g) for 60 minutes. The translucent final pellet is harvested and combined in a small volume (20-50.0 ml) of 50.0 mM Tris.HCl buffer, pH 7.2. A 100 ul aliquot is withdrawn and the protein content of the preparation is determined by the Lowry's method (Lowry, O. H., Rosebrough, […]. and Randall, R. J., Protein measurement with Folin phenol reagent. J. Biol. Chem., […], 265-275, 1951). The pelleted membrane is reconstituted in 50.0 mM Tris.HCl buffer containing 0.1 mM of phenylmethylsulfonyl fluoride (PMSF) to give approximately a protein concentration of 2.5 mg per ml of tissue suspension. […] Receptor Binding Assay: […] In competition studies, experimental compounds are diluted in dimethylsulfoxide (DMSO) and added in 20 ul to wells before the introduction of tissue membranes. […] Assays are performed in triplicate. The wells are left undisturbed for 60 minutes at room temperature. Following incubation, all wells are harvested at once with a Brandel® Harvester especially designed for a 96 well plate (Brandel® Biomedical Research & Development Labs. Inc., Gaithersburg, Md., U.S.A.). The filter discs are washed with 10×1.0 ml of cold 0.9% NaCl to remove unbound ligand. Presoaking the filter sheet in 0.1% polyethyleneimine in normal saline (PEI/Saline) greatly reduces the radioactivity retained by the filter blanks. This method is routinely used. The filters are removed from the filter grid and counted in a Parkard® Cobra Gamma Counter for 1 minutes. (Packard Instrument Co., Downers Grove, Ill, U.S.A.). The binding data are analyzed by the non-linear interactive "LUNDON-1" program (LUNDON SOFTWARE Inc., Cleveland, Ohio U.S.A.).

[2] = AII 0.01 mcg/kg IV (so in the source), 30 min post dose
[3] = AII 0.05 mcg/kg IV, 30 min post dose
[4] = AII 0.05 mcg/kg IV, 60 min post dose
[5] = AII 0.05 mcg/kg IV, 90 min post dose
[6] = AII 0.05 mcg/kg IV, 120 min post dose
[7] = AII 0.05 mcg/kg IV, 180 min post dose
[8] = AII 0.05 mcg/kg IV, 240 min post dose
[9] = AII 0.05 mcg/kg IV, 300 min post dose
[10] = AII 0.1 mcg/kg IV, 60 min post dose
[11] = AII 0.1 mcg/kg IV, 90 min post dose
[12] = AII 0.1 mcg/kg IV, 120 min post dose
[13] = AII 0.1 mcg/kg IV, 180 min post dose
[14] = AII 0.1 mcg/kg IV, 240 min post dose
[15] = AII 0.1 mcg/kg IV, 300 min post dose
[16] = AII 0.1 mcg/kg IV, 30 min post dose

SMILES | % Inhibition of AII vasopressor response [1, 3] | Average Change (systolic blood pressure response to AII) [1, 3] | % Inhibition of AII vasopressor response [1, 4] | Average Change (systolic blood pressure response to AII) [1, 4] | % Inhibition of AII vasopressor response [1, 5] | Average Change (systolic blood pressure response to AII) [1, 5] | % Inhibition of AII vasopressor response [1, 6] | Average Change (systolic blood pressure response to AII) [1, 6] | % Inhibition of AII vasopressor response [1, 7] | Average Change (systolic blood pressure response to AII) [1, 7] | % Inhibition of AII vasopressor response [1, 8] | Average Change (systolic blood pressure response to AII) [1, 8] | % Inhibition of AII vasopressor response [1, 9] | Average Change (systolic blood pressure response to AII) [1, 9] | % Inhibition of AII vasopressor response [1, 10] | Average Change (systolic blood pressure response to AII) [1, 10] | % Inhibition of AII vasopressor response [1, 11] | Average Change (systolic blood pressure response to AII) [1, 11] | % Inhibition of AII vasopressor response [1, 12] | IC50 (Angiotensin II Receptor) | also measured
CCCCc1nc2ccc(C(O)C3CCCS3(=O)=O)cc2c(=O)n1Cc1ccc(-c2ccccc2-c2nn[nH]n2)cc1 (single isomer, unassigned; isomer 1) [Example 15, 2-Butyl-6-[hydroxy(tetrahydro-2-thienyl)methyl-3-[[2'-(1H-tetrazol-5-yl)[1,1'-biphenyl]-4-yl]methyl]-4(3H)-quinazolinone S,S-dioxide isomer 1] | 88% | 5 mmHg | 73% | 11 mmHg | 83% | 7 mmHg | 32% | 27.5 mmHg | 42% | 23.5 mmHg | 38% | 25 mmHg | 26% | 30 mmHg | 63% | 18.5 mmHg | 54% | 23 mmHg | 45% | 0.11 µM | % Inhibition of AII vasopressor response [1, 2]: 75%; Average Change (systolic blood pressure response to AII) [1, 2]: 12.5 mmHg; Average Change (systolic blood pressure response to AII) [1, 12]: 27.5 mmHg; % Inhibition of AII vasopressor response [1, 13]: 50%; Average Change (systolic blood pressure response to AII) [1, 13]: 25 mmHg; % Inhibition of AII vasopressor response [1, 14]: 50%; Average Change (systolic blood pressure response to AII) [1, 14]: 25 mmHg; % Inhibition of AII vasopressor response [1, 15]: 45%; Average Change (systolic blood pressure response to AII) [1, 15]: 27.5 mmHg
CCCCc1nc2ccc(C(C)(O)C3CCN(C)C3=O)cc2c(=O)n1Cc1ccc(-c2ccccc2-c2nn[nH]n2)cc1 (single isomer, unassigned; isomer 1) [Example 47, 2-Butyl-6-1-hydroxy-1-(1-methyl-2-oxo-3-pyrrolidinyl)ethyl]-3-[[2'-[1H(tetrazol-5yl)-[1,1'-biphenyl]-4-yl]methyl-4(3H)-quinazolinone isomer 1] | 75% | 10 mmHg | 75% | 10 mmHg | 63% | 15 mmHg | 69% | 12.5 mmHg | 75% | 10 mmHg | 38% | 25 mmHg | 29% | 28.5 mmHg | 65% | 15 mmHg | 76% | 10 mmHg | 82% | 0.04 µM | % Inhibition of AII vasopressor response [1, 16]: 73%; Average Change (systolic blood pressure response to AII) [1, 16]: 11.5 mmHg; Average Change (systolic blood pressure response to AII) [1, 12]: 7.5 mmHg; % Inhibition of AII vasopressor response [1, 13]: 59%; Average Change (systolic blood pressure response to AII) [1, 13]: 17.5 mmHg; % Inhibition of AII vasopressor response [1, 14]: 29%; Average Change (systolic blood pressure response to AII) [1, 14]: 30 mmHg; % Inhibition of AII vasopressor response [1, 15]: 18%; Average Change (systolic blood pressure response to AII) [1, 15]: 35 mmHg
CCCCc1nc2ccc(C(O)C3CCCCN(C)C3=O)cc2c(=O)n1Cc1ccc(-c2ccccc2-c2nn[nH]n2)cc1 (single isomer, unassigned; isomer 2) [Example 55, 2-Butyl-6-[(hexahydro-1-methyl-2-oxo-1H-azepin-3-yl)hydroxymethyl]-3-[[2'-(1H-tetrazol-5-yl)[1,1'-biphenyl]-4-yl]methyl-4(3H)quinazolinone isomer 2] |  |  |  |  |  |  |  |  |  |  |  |  |  |  |  |  |  |  |  | 0.15 µM | 
CCCCc1nc2ccc(C(O)C3CCCCN(C)C3=O)cc2c(=O)n1Cc1ccc(-c2ccccc2-c2nn[nH]n2)cc1 (single isomer, unassigned; isomer 1) [Example 54, 2-Butyl-6-[(hexahydro-1-methyl-2-oxo-1H-azepin-3-yl)hydroxymethyl]-3-[[2'-(1H-tetrazol-5-yl)[1,1'biphenyl]-4-yl]methyl-4-(3H)-quinazolinone isomer 1] |  |  |  |  |  |  |  |  |  |  |  |  |  |  |  |  |  |  |  | 0.43 µM | 
CCCCc1nc2ccc(C(O)C3CCCO3)cc2c(=O)n1Cc1ccc(-c2ccccc2-c2nn[nH]n2)cc1 (stereo not shown) [Example 28] |  |  |  |  |  |  |  |  |  |  |  |  |  |  |  |  |  |  |  | 0.13 µM | 
